Source: article PMC11445722, “Synthesis, Characterization, and Biological Evaluation of Novel [M(η^6-arene)2]^+ (M = Re, ^99mTc) Hosted Terpyridines and Copper Complexes Thereof” (Inorganic Chemistry, 2024)

What was measured:
Type in all cases: cell-based
[1] = tested on: HT29 (human colon adenocarcinoma); assay: Cell viability (resazurin) assay, 2D model, HT29; conditions: 48 h incubation, three independent experiments, read-out: IC50 ± SEM, HT29
Procedure: (§1) First, the cytotoxic activity of the compounds was investigated in different cancerous and noncancerous cell lines, namely, HT29 (human colon adenocarcinoma), A549 (human lung adenocarcinoma), and RPE-1 (human retinal epithelium). Cisplatin was used as a positive control. Cells were first incubated for 48 h with the complexes before cell viability was measured with a colorimetric resazurin assay.
(§2) Ce ll Culture: T he RPE-1 c ell l ine wa s cul ture d in DME M /F12 med iu m (G ibco) . T h e HT29 c ell line was
culture d in McCoy me dium (Gibco).
(§3) All ce ll line s were co mple me nted wit h 10% o f fetal calf ser um ( Gibco) and 100 U.mL-1 penicillin-
(§4) streptomycin mixture (Gibco) and maintained in a humidiﬁed atmosphere at 37 °C and 5% CO2.
(§5) Cell Viability Assay using a 2D Cellular Model: The cytotoxicity of the compounds was assessed by a
(§6) ﬂuorometric ce ll viability assay using Resazurin (Acros Organics) . Brieﬂy, ce l ls were s ee de d in tri pl ic ate
(§7) in 96-well plates at a 4×10^3 cells/well density in 100 μL Gibco McCoy’s 5A (1X) + GlutaMAX (Modiﬁed
(§8) Medium) with 10 % FBS and 1% Penicillin/Streptomycin. AŌer 24 h, cells were treated with increasing
(§9) concentraƟons of the compo unds and cisplaƟn. DiluƟons for the compounds were prepared f rom 10
(§10) mM stock in DMSO which were diluted to 100 - 0,01 μM with medium. AŌer 48 h of incubaƟon, the
(§11) medium was removed and 100 μL of complete medium containing resazurin (0.2 mg.mL-1 ﬁnal
(§12) concentraƟon) was adde d. AŌer 4 h of incubaƟon at 37 °C, the ﬂuoresc ence signal of the resoruﬁn
(§13) values were then calculated using the GraphPad Prism soŌware.

[2] = tested on: RPE-1 (human retinal epithelium); assay: Cell viability (resazurin) assay, 2D model, RPE-1; conditions: 48 h incubation, noncancerous cell line, three independent experiments, read-out: IC50 ± SEM, RPE-1
Procedure: as §1, §2
culture d in McCoy me dium (Gibco).
as §3, §4, §5, §6, §7, §8, §9, §10, §11, §12, §13

[3] = tested on: A549 (human lung adenocarcinoma); assay: Cell viability (resazurin) assay, 2D model, A549; conditions: 48 h incubation, three independent experiments, read-out: IC50 ± SEM, A549
Procedure: as §1, §2
culture d in McCoy me dium (Gibco).
as §3, §4, §5, §6, §7, §8, §9, §10, §11, §12, §13

IC50 [1] | IC50 [3] | Compound | IC50 [2]
> 100 µM | > 100 µM | N.[O]=[Re](=[O])(=[O])[OH] [(NH4)[ReO4]] | > 100 µM
> 100 µM | > 100 µM | [Cl][Cu][Cl] [CuCl2] | > 100 µM

Compound | IC50 [1] | IC50 [3] | IC50 [2]
N.N.[Cl][Pt][Cl] [cisplatin] | 7.84 ± 0.57 µM | 10.9 ± 0.17 µM | 22.6 ± 2.74 µM
